Measured values from ChEMBL document CHEMBL5370577, “Structurally Diverse Cytotoxic Polyphenols from Garcinia gracilis” (J Nat Prod, 2023).
pIC50: −log10 of the molar value.

Tests used:
[1] = test system: SW480; experiment: Growth inhibition in human SW480 cells assessed as reduction in cell viability at 40 uM incubated for 48 hrs by MTS assay relative to control; format: functional; settings: read-out: GI
[2] = test system: SMMC-7721; experiment: Growth inhibition in human SMMC-7721 cells assessed as reduction in cell viability at 40 uM incubated for 48 hrs by MTS assay relative to control; format: functional; settings: read-out: GI
[3] = test system: A549; experiment: Growth inhibition in human A549 cells assessed as reduction in cell viability at 40 uM incubated for 48 hrs by MTS assay relative to control; format: functional; settings: read-out: GI
[4] = test system: SMMC-7721; experiment: Cytotoxicity against human SMMC-7721 cells assessed as reduction in cell viability incubated for 48 hrs by MTS assay; format: functional, cell-based; settings: SMMC-7721, 48 h
[5] = test system: SW480; experiment: Cytotoxicity against human SW480 cells assessed as reduction in cell viability incubated for 48 hrs by MTS assay; format: functional, cell-based; settings: SW480, 48 h
[6] = test system: MDA-MB-231; experiment: Growth inhibition in human MDA-MB-231 cells assessed as reduction in cell viability at 40 uM incubated for 48 hrs by MTS assay relative to control; format: functional; settings: read-out: GI
[7] = test system: HL-60; experiment: Cytotoxicity against human HL-60 cells assessed as reduction in cell viability incubated for 48 hrs by MTS assay; format: functional, cell-based; settings: HL-60, 48 h
[8] = test system: MDA-MB-231; experiment: Cytotoxicity against human MDA-MB-231 cells assessed as reduction in cell viability incubated for 48 hrs by MTS assay; format: functional, cell-based; settings: MDA-MB-231, 48 h
[9] = test system: HL-60; experiment: Growth inhibition in human HL-60 cells assessed as reduction in cell viability at 40 uM incubated for 48 hrs by MTS assay relative to control; format: functional; settings: read-out: GI
[10] = Cytotoxicity against human BEAS-2B cells assessed as reduction in cell viability incubated for 48 hrs by MTS assay; format: toxicity, cell-based
[11] = test system: A549; experiment: Cytotoxicity against human A549 cells assessed as reduction in cell viability incubated for 48 hrs by MTS assay; format: functional, cell-based; settings: A549, 48 h
[12] = test system: SMMC-7721; experiment: Induction of apoptosis in human SMMC-7721 cells assessed as necrotic cells at 5 uM incubated for 24 hrs by Annexin V-FITC/PI staining based flow cytometry analysis (Rvb= 0.572%); format: functional
[13] = test system: SMMC-7721; experiment: Induction of apoptosis in human SMMC-7721 cells assessed as early apoptotic cells at 20 uM incubated for 24 hrs by Annexin V-PE/7-AAD staining based flow cytometry analysis (Rvb= 0.231%); format: functional
[14] = test system: SMMC-7721; experiment: Induction of apoptosis in human SMMC-7721 cells assessed as viable cells at 10 uM incubated for 24 hrs by Annexin V-PE/7-AAD staining based flow cytometry analysis (Rvb= 98.6%); format: functional; settings: read-out: Activity
[15] = test system: SMMC-7721; experiment: Induction of apoptosis in human SMMC-7721 cells assessed as viable cells at 5 uM incubated for 24 hrs by Annexin V-PE/7-AAD staining based flow cytometry analysis (Rvb= 98.6%); format: functional; settings: read-out: Activity
[16] = test system: SMMC-7721; experiment: Induction of apoptosis in human SMMC-7721 cells assessed as viable cells at 20 uM incubated for 24 hrs by Annexin V-PE/7-AAD staining based flow cytometry analysis (Rvb= 98.6%); format: functional; settings: read-out: Activity
[17] = test system: SMMC-7721; experiment: Induction of apoptosis in human SMMC-7721 cells assessed as late apoptotic cells at 10 uM incubated for 24 hrs by Annexin V-PE/7-AAD staining based flow cytometry analysis (Rvb= 0.627%); format: functional
[18] = test system: SMMC-7721; experiment: Induction of apoptosis in human SMMC-7721 cells assessed as late apoptotic cells at 5 uM incubated for 24 hrs by Annexin V-PE/7-AAD staining based flow cytometry analysis (Rvb= 0.627%); format: functional
[19] = test system: SMMC-7721; experiment: Induction of apoptosis in human SMMC-7721 cells assessed as early apoptotic cells at 10 uM incubated for 24 hrs by Annexin V-PE/7-AAD staining based flow cytometry analysis (Rvb= 0.231%); format: functional
[20] = test system: SMMC-7721; experiment: Induction of apoptosis in human SMMC-7721 cells assessed as necrotic cells at 10 uM incubated for 24 hrs by Annexin V-FITC/PI staining based flow cytometry analysis (Rvb= 0.572%); format: functional
[21] = test system: SMMC-7721; experiment: Induction of apoptosis in human SMMC-7721 cells assessed as necrotic cells at 20 uM incubated for 24 hrs by Annexin V-FITC/PI staining based flow cytometry analysis (Rvb= 0.572%); format: functional
[22] = test system: SMMC-7721; experiment: Induction of apoptosis in human SMMC-7721 cells assessed as early apoptotic cells at 5 uM incubated for 24 hrs by Annexin V-PE/7-AAD staining based flow cytometry analysis (Rvb= 0.231%); format: functional
[23] = test system: SMMC-7721; experiment: Induction of apoptosis in human SMMC-7721 cells assessed as late apoptotic cells at 20 uM incubated for 24 hrs by Annexin V-PE/7-AAD staining based flow cytometry analysis (Rvb= 0.627%); format: functional

| SMILES | inhibition of growth at 40 µM [1] | inhibition of growth at 40 µM [2] | inhibition of growth at 40 µM [3] | pIC50 [4] | pIC50 [5] | inhibition of growth at 40 µM [6] | pIC50 [7] | pIC50 [8] | inhibition of growth at 40 µM [9] | IC50 at 48 h [10] | pIC50 [11] | further results |
| --- | --- | --- | --- | --- | --- | --- | --- | --- | --- | --- | --- | --- |
| CC(C)=CC[C@@]12OC(C)(C)[C@@H]3C[C@H](C=C4C(=O)c5c(O)cc(O)c(CCC(C)(C)O)c5O[C@]431)C2=O | > 50% | > 50% | > 50% | 5.68 | 5.42 | > 50% | 5.31 | 5.21 | > 50% | 7.7 µM | 5.54 | – |
| CC(C)(O)CCc1c(O)cc(O)c2c(=O)c3ccc(O)c(O)c3oc12 | > 50% | > 50% | > 50% | 5.66 | 5.21 | > 50% | 5.41 | 4.56 | > 50% | 20.4 µM | 5.14 | – |
| CC1(C)C=Cc2c(cc(O)c3c(=O)c4ccc(O)c(O)c4oc23)O1 | > 50% | > 50% | > 50% | 5.66 | 5.40 | > 50% | – | 5.05 | > 50% | 21.1 µM | 5.41 | – |
| CC(C)=CC[C@@]12OC(C)(C)[C@@H]3C[C@H](C=C4C(=O)c5c(O)cc(O)cc5O[C@]431)C2=O | > 50% | > 50% | > 50% | 5.85 | 5.43 | > 50% | 5.20 | 5.24 | > 50% | 3.2 µM | 5.59 | Activity [12]: 1.8%; Activity [13]: 20.5%; viability at 10 µM [14]: 50%; viability at 5 µM [15]: 85.4%; viability at 20 µM [16]: 6.98%; Activity [17]: 29.1%; Activity [18]: 9.08%; Activity [19]: 12.7%; Activity [20]: 8.22%; Activity [21]: 3.79%; Activity [22]: 3.74%; Activity [23]: 68.7% |
| CC(C)=CC[C@@]12OC(C)(C)[C@@H]3C[C@H](C=C4C(=O)c5c(O)cc6c(c5O[C@]431)CCC(C)(C)O6)C2=O | > 50% | > 50% | > 50% | 6.00 | 6.00 | > 50% | 5.77 | 5.64 | > 50% | 1.1 µM | 5.54 | – |
| COc1cccc2c1C(=O)c1c(O)c3c(c(O)c1C2=O)C[C@@](O)(C(=O)CO)C[C@@H]3O[C@H]1C[C@H](N)[C@H](O)[C@H](C)O1 [DOXORUBICIN] | – | – | – | – | – | – | – | – | – | – | – | Activity [12]: 1.85%; viability at 5 µM [15]: 1.34%; Activity [18]: 96%; Activity [22]: 0.796% |
| CC(C)=CCc1c(O)cc(O)c2c1O[C@]13C(=C[C@H]4C[C@H]1C(C)(C)O[C@@]3(CC=C(C)C)C4=O)C2=O | > 50% | > 50% | > 50% | 6.30 | 6.00 | > 50% | 5.96 | 5.89 | > 50% | 0.7 µM | 6.10 | – |
